Test results as given in article PMC5218480 (PLoS ONE, 2017).

System: MV-4-11 cells
Experiment: Gene expression microarray analysis (Affymetrix PrimeView) and GSEA
Assay type: cell-based, human
Set-up: RFU PODN (11730768_x_at) / Fold change /veh PODN (11730768_x_at) / RFU LINC00158 (11744669_a_at) / Fold change /veh LINC00158 (11744669_a_at) / RFU DUSP10 (11751237_a_at) / Fold change /veh DUSP10 (11751237_a_at) / RFU ID3 (11757404_x_at) / Fold change /veh ID3 (11757404_x_at) / RFU PLEKHG5 (11737974_s_at) / Fold change /veh PLEKHG5 (11737974_s_at) / RFU LRRC4B (11730491_at) / Fold change /veh LRRC4B (11730491_at) / RFU GIMAP4 (11747438_a_at) / Fold change /veh GIMAP4 (11747438_a_at) / RFU KRT8 (11758183_x_at) / Fold change /veh KRT8 (11758183_x_at) / RFU CNN1 (11734310_a_at) / Fold change /veh CNN1 (11734310_a_at) / RFU VPS37D (11726825_at) / Fold change /veh VPS37D (11726825_at) / RFU C10orf10 (11716522_x_at) / Fold change /veh C10orf10 (11716522_x_at) / RFU KIR2DL2 /// KIR2DL4 /// KIR2DL5A /// KIR2DL5B /// KIR2DS1 /// KIR2DS2 /// KIR2DS3 /// KIR2DS4 /// KIR3DL3 /// KIR3DL3 /// KIR3DS1 (11738374_at) / Fold change /veh KIR2DL2 /// KIR2DL4 /// KIR2DL5A /// KIR2DL5B /// KIR2DS1 /// KIR2DS2 /// KIR2DS3 /// KIR2DS4 /// KIR3DL3 /// KIR3DL3 /// KIR3DS1 (11738374_at) / RFU C1QL1 (11718748_at) / Fold change /veh C1QL1 (11718748_at) / RFU TMPRSS4 (11747572_a_at) / Fold change /veh TMPRSS4 (11747572_a_at) / RFU HAMP (11756126_x_at) / Fold change /veh HAMP (11756126_x_at) / RFU RNFT2 (11725882_a_at) / Fold change /veh RNFT2 (11725882_a_at) / RFU NR4A2 (11747474_a_at) / Fold change /veh NR4A2 (11747474_a_at) / RFU ABCC12 (11746883_a_at) / Fold change /veh ABCC12 (11746883_a_at) / RFU TMEM136 (11760407_x_at) / Fold change /veh TMEM136 (11760407_x_at) / RFU CLDN22 /// WWC2 (11732394_at) / Fold change /veh CLDN22 /// WWC2 (11732394_at) / RFU HLA-DPB1 (11760878_x_at) / Fold change /veh HLA-DPB1 (11760878_x_at) / RFU SPINT1 (11716480_a_at) / Fold change /veh SPINT1 (11716480_a_at) / RFU GAP43 (11754022_s_at) / Fold change /veh GAP43 (11754022_s_at) / RFU A4GNT (11735810_at) / Fold change /veh A4GNT (11735810_at) / RFU PRB3 (11715151_x_at) / Fold change /veh PRB3 (11715151_x_at) / RFU TUBB4B (11761932_at) / Fold change /veh TUBB4B (11761932_at) / RFU CAPN14 (11732068_a_at) / Fold change /veh CAPN14 (11732068_a_at) / RFU TMCC2 (11721928_a_at) / Fold change /veh TMCC2 (11721928_a_at) / RFU IRGQ (11745062_a_at) / Fold change /veh IRGQ (11745062_a_at) / RFU FAM174B (11720279_a_at) / Fold change /veh FAM174B (11720279_a_at) / RFU TMPRSS4 (11748680_a_at) / Fold change /veh TMPRSS4 (11748680_a_at) / RFU FAM212B (11763350_a_at) / Fold change /veh FAM212B (11763350_a_at) / RFU PLEKHG5 (11743358_a_at) / Fold change /veh PLEKHG5 (11743358_a_at) / RFU ZSCAN30 (11745921_a_at) / Fold change /veh ZSCAN30 (11745921_a_at) / RFU CMKLR1 (11741424_a_at) / Fold change /veh CMKLR1 (11741424_a_at) / RFU LOC101060620 /// MAPK8IP1 (11723275_at) / Fold change /veh LOC101060620 /// MAPK8IP1 (11723275_at) / RFU SPTSSB (11747773_x_at) / Fold change /veh SPTSSB (11747773_x_at) / RFU PRSS12 (11739890_at) / Fold change /veh PRSS12 (11739890_at) / RFU BIN1 (11741810_x_at) / Fold change /veh BIN1 (11741810_x_at) / RFU WNT11 (11732464_a_at) / Fold change /veh WNT11 (11732464_a_at) / RFU C10orf10 (11716521_a_at) / Fold change /veh C10orf10 (11716521_a_at) / RFU C5orf56 (11738089_at) / Fold change /veh C5orf56 (11738089_at) / RFU CYB561 (11721691_x_at) / Fold change /veh CYB561 (11721691_x_at) / RFU ANKRD19P (11752326_a_at) / Fold change /veh ANKRD19P (11752326_a_at) / RFU OR2T12 /// OR2T33 /// OR2T8 (11738714_s_at) / Fold change /veh OR2T12 /// OR2T33 /// OR2T8 (11738714_s_at) / RFU VCAN (11748164_a_at) / Fold change /veh VCAN (11748164_a_at) / RFU JSRP1 (11732532_at) / Fold change /veh JSRP1 (11732532_at) / RFU KRTAP10-11 (11738290_x_at) / Fold change /veh KRTAP10-11 (11738290_x_at) / RFU MYO3A (11730013_a_at) / Fold change /veh MYO3A (11730013_a_at) / RFU EBF3 (11725865_a_at) / Fold change /veh EBF3 (11725865_a_at) / RFU CAMK2N1 (11719241_x_at) / Fold change /veh CAMK2N1 (11719241_x_at) / RFU C5orf56 (11738088_a_at) / Fold change /veh C5orf56 (11738088_a_at) / RFU OLFML3 (11715873_a_at) / Fold change /veh OLFML3 (11715873_a_at) / RFU LOC100653217 /// NTM (11731650_a_at) / Fold change /veh LOC100653217 /// NTM (11731650_a_at) / RFU MAPK11 (11762145_a_at) / Fold change /veh MAPK11 (11762145_a_at) / RFU FIZ1 (11724087_x_at) / Fold change /veh FIZ1 (11724087_x_at) / RFU OASL (11726364_x_at) / Fold change /veh OASL (11726364_x_at) / RFU SOX15 (11748057_x_at) / Fold change /veh SOX15 (11748057_x_at) / RFU CD79A (11719716_a_at) / Fold change /veh CD79A (11719716_a_at) / RFU HIST1H1D (11736915_at) / Fold change /veh HIST1H1D (11736915_at) / RFU CASKIN2 (11723855_a_at) / Fold change /veh CASKIN2 (11723855_a_at) / RFU LOC730098 (11760151_x_at) / Fold change /veh LOC730098 (11760151_x_at) / RFU OR4N2 (11742367_at) / Fold change /veh OR4N2 (11742367_at) / RFU PRRT2 (11749266_a_at) / Fold change /veh PRRT2 (11749266_a_at) / RFU SNX32 (11753110_a_at) / Fold change /veh SNX32 (11753110_a_at) / RFU CDHR5 (11726645_a_at) / Fold change /veh CDHR5 (11726645_a_at) / RFU RCAN1 (11760418_a_at) / Fold change /veh RCAN1 (11760418_a_at) / RFU FAM167A (11723789_a_at) / Fold change /veh FAM167A (11723789_a_at) / RFU FAM26E (11764081_at) / Fold change /veh FAM26E (11764081_at) / RFU ISYNA1 (11749810_s_at) / Fold change /veh ISYNA1 (11749810_s_at) / RFU ACY1 (11761880_at) / Fold change /veh ACY1 (11761880_at) / RFU 11764098_at / Fold change /veh 11764098_at / RFU SAMD14 (11745864_x_at) / Fold change /veh SAMD14 (11745864_x_at) / RFU NPB (11741838_a_at) / Fold change /veh NPB (11741838_a_at) / RFU TMPRSS6 (11731388_a_at) / Fold change /veh TMPRSS6 (11731388_a_at) / RFU KRTAP10-2 (11738614_at) / Fold change /veh KRTAP10-2 (11738614_at) / RFU ARHGAP8 /// PRR5-ARHGAP8 (11727945_x_at) / Fold change /veh ARHGAP8 /// PRR5-ARHGAP8 (11727945_x_at) / RFU KRTAP5-7 /// NADSYN1 (11734609_at) / Fold change /veh KRTAP5-7 /// NADSYN1 (11734609_at) / RFU RASL12 (11751679_a_at) / Fold change /veh RASL12 (11751679_a_at) / RFU CDKN2B (11736163_a_at) / Fold change /veh CDKN2B (11736163_a_at) / RFU PRF1 (11729649_at) / Fold change /veh PRF1 (11729649_at) / RFU, ZNF638 /// ZNF638-IT1 / Fold change vs veh, ZNF638 /// ZNF638-IT1 / RFU, PANK3 / Fold change vs veh, PANK3 / RFU, SH3YL1 / Fold change vs veh, SH3YL1 / RFU, ZEB2 / Fold change vs veh, ZEB2 / RFU, NRIP1 / Fold change vs veh, NRIP1 / RFU, PTTG1IP / Fold change vs veh, PTTG1IP / RFU, CAPN2 / Fold change vs veh, CAPN2 / RFU, MED14 / Fold change vs veh, MED14 / RFU, SNORA58 / Fold change vs veh, SNORA58 / RFU, C1orf63 / Fold change vs veh, C1orf63 / RFU, LRRFIP1 / Fold change vs veh, LRRFIP1 / RFU, NDUFAF7 / Fold change vs veh, NDUFAF7 / RFU, SLC12A2 / Fold change vs veh, SLC12A2 / RFU, IBTK / Fold change vs veh, IBTK / RFU, ESF1 / Fold change vs veh, ESF1 / Fold change vs veh, TMEM50B / RFU, TAOK1 / Fold change vs veh, TAOK1 / RFU, ACBD3 / Fold change vs veh, ACBD3 / RFU, TMA16 / Fold change vs veh, TMA16 / RFU, RWDD3 / Fold change vs veh, RWDD3 / RFU, BCAT1 / Fold change vs veh, BCAT1 / RFU, EDEM3 / Fold change vs veh, EDEM3 / RFU, TMEM33 / Fold change vs veh, TMEM33 / RFU, WDR75 / Fold change vs veh, WDR75 / RFU, AHCTF1 / Fold change vs veh, AHCTF1 / RFU, TFRC / Fold change vs veh, TFRC / RFU, ZDHHC17 / Fold change vs veh, ZDHHC17 / RFU, NOM1 / Fold change vs veh, NOM1 / RFU, ARL8B / Fold change vs veh, ARL8B / RFU, ZBTB11 / Fold change vs veh, ZBTB11 / RFU, TAMM41 / Fold change vs veh, TAMM41 / RFU, KIAA1704 /// LOC100996395 / Fold change vs veh, KIAA1704 /// LOC100996395 / RFU, ING1 / Fold change vs veh, ING1 / RFU, TRMT61B / Fold change vs veh, TRMT61B / RFU, FUBP3 / Fold change vs veh, FUBP3 / RFU, TP53 / Fold change vs veh, TP53 / RFU, TNKS2 / Fold change vs veh, TNKS2 / RFU, ZFP14 / Fold change vs veh, ZFP14 / RFU, ACTR2 / Fold change vs veh, ACTR2 / RFU, PPP3R1 / Fold change vs veh, PPP3R1 / RFU, PIK3R1 / Fold change vs veh, PIK3R1 / RFU, HNRNPA1 / Fold change vs veh, HNRNPA1 / RFU, RNF170 / Fold change vs veh, RNF170 / RFU, ZNF28 / Fold change vs veh, ZNF28 / RFU, RNGTT / Fold change vs veh, RNGTT / RFU, OGT / Fold change vs veh, OGT / RFU, BRD1 / Fold change vs veh, BRD1 / RFU, MARS / Fold change vs veh, MARS / RFU, ZNF655 / Fold change vs veh, ZNF655 / RFU, FAHD1 / Fold change vs veh, FAHD1 / RFU, BDP1 / Fold change vs veh, BDP1 / RFU, LRRCC1 / Fold change vs veh, LRRCC1 / RFU, ARID1A / Fold change vs veh, ARID1A / RFU, ZNF146 / Fold change vs veh, ZNF146 / RFU, ZNF330 / Fold change vs veh, ZNF330 / RFU, GPN3 / Fold change vs veh, GPN3 / RFU, C9orf123 / Fold change vs veh, C9orf123 / RFU, N4BP2L2 / Fold change vs veh, N4BP2L2 / RFU, ARFIP1 / Fold change vs veh, ARFIP1 / RFU, FAM179B / Fold change vs veh, FAM179B / RFU, BCL10 / Fold change vs veh, BCL10 / RFU, UHRF1BP1L / Fold change vs veh, UHRF1BP1L / RFU, BET1 / Fold change vs veh, BET1 / RFU, CNOT2 / Fold change vs veh, CNOT2 / RFU, ZNF268 / Fold change vs veh, ZNF268 / Fold change vs veh, ZNF507 / RFU, DGCR2 / Fold change vs veh, DGCR2 / RFU, WDSUB1 / Fold change vs veh, WDSUB1 / Fold change vs veh, HSP90B1 /// MIR3652 / RFU, ADSS / Fold change vs veh, ADSS / RFU, GK / Fold change vs veh, GK / RFU, ZNF148 / Fold change vs veh, ZNF148 / RFU, TAF9 / Fold change vs veh, TAF9 / RFU, SLC1A5 / Fold change vs veh, SLC1A5 / RFU, SLMO2 / Fold change vs veh, SLMO2 / RFU, ABCC4 / Fold change vs veh, ABCC4 / RFU, LOC101060439 /// RAP1B / Fold change vs veh, LOC101060439 /// RAP1B / RFU, RFX7 / Fold change vs veh, RFX7 / RFU, GTPBP10 / Fold change vs veh, GTPBP10 / RFU, CNEP1R1 / Fold change vs veh, CNEP1R1 / RFU, BIVM-ERCC5 /// ERCC5 / Fold change vs veh, BIVM-ERCC5 /// ERCC5 / RFU, ILF3 / Fold change vs veh, ILF3 / RFU 11762660_at / Fold change /veh 11762660_at / RFU VCAN (11757783_s_at) / Fold change /veh VCAN (11757783_s_at) / RFU DDX43 (11728927_at) / Fold change /veh DDX43 (11728927_at) / RFU KRT8 (11758188_x_at) / Fold change /veh KRT8 (11758188_x_at) / RFU NKD1 (11759106_at) / Fold change /veh NKD1 (11759106_at) / RFU SRD5A1 (11742802_a_at) / Fold change /veh SRD5A1 (11742802_a_at) / RFU TPSAB1 /// TPSB2 (11721975_s_at) / Fold change /veh TPSAB1 /// TPSB2 (11721975_s_at) / RFU GSTM3 (11746129_a_at) / Fold change /veh GSTM3 (11746129_a_at) / RFU IL23R (11737362_x_at) / Fold change /veh IL23R (11737362_x_at) / RFU TMEM51 (11727254_a_at) / Fold change /veh TMEM51 (11727254_a_at) / RFU PIWIL2 (11732686_x_at) / Fold change /veh PIWIL2 (11732686_x_at) / RFU ORM1 (11744905_x_at) / Fold change /veh ORM1 (11744905_x_at) / RFU CCDC152 (11743942_at) / Fold change /veh CCDC152 (11743942_at) / RFU ECM1 (11717891_a_at) / Fold change /veh ECM1 (11717891_a_at) / RFU IL23R (11748794_a_at) / Fold change /veh IL23R (11748794_a_at) / RFU TNFAIP8L3 (11732012_x_at) / Fold change /veh TNFAIP8L3 (11732012_x_at) / RFU MBOAT4 (11741988_at) / Fold change /veh MBOAT4 (11741988_at) / RFU 11764193_at / Fold change /veh 11764193_at / RFU TMEM53 (11763286_at) / Fold change /veh TMEM53 (11763286_at) / RFU MAGEB2 (11727129_at) / Fold change /veh MAGEB2 (11727129_at) / RFU TMEM200A (11744735_a_at) / Fold change /veh TMEM200A (11744735_a_at) / RFU CCDC152 (11751479_a_at) / Fold change /veh CCDC152 (11751479_a_at) / RFU FAM211A (11726209_a_at) / Fold change /veh FAM211A (11726209_a_at) / RFU RGS16 (11746705_a_at) / Fold change /veh RGS16 (11746705_a_at) / RFU VCAN (11755009_s_at) / Fold change /veh VCAN (11755009_s_at) / RFU RHOB (11743442_s_at) / Fold change /veh RHOB (11743442_s_at) / RFU RGS16 (11720943_a_at) / Fold change /veh RGS16 (11720943_a_at) / RFU RGS16 (11720944_at) / Fold change /veh RGS16 (11720944_at) / RFU, VPS4B / Fold change vs veh, VPS4B / RFU, CREB1 / Fold change vs veh, CREB1 / RFU, DNAJC13 / Fold change vs veh, DNAJC13 / RFU, GNAQ / Fold change vs veh, GNAQ / RFU, CDK5R1 / Fold change vs veh, CDK5R1 / RFU, ZRANB3 / Fold change vs veh, ZRANB3 / RFU, CUL4A / Fold change vs veh, CUL4A / RFU, CCNY / Fold change vs veh, CCNY / RFU, UFL1 / Fold change vs veh, UFL1 / RFU, COG3 / Fold change vs veh, COG3 / RFU, DIAPH2 / Fold change vs veh, DIAPH2 / RFU, SKA2 / Fold change vs veh, SKA2 / RFU, AFF3 / Fold change vs veh, AFF3 / RFU, LMF1 / Fold change vs veh, LMF1 / RFU, IPO11 / Fold change vs veh, IPO11 / RFU, DFFB / Fold change vs veh, DFFB / RFU, FOXP1 / Fold change vs veh, FOXP1 / RFU, CARD8 / Fold change vs veh, CARD8 / RFU, STRN3 / Fold change vs veh, STRN3 / RFU, ADK / Fold change vs veh, ADK / RFU, RASSF2 / Fold change vs veh, RASSF2 / RFU, WIPF1 / Fold change vs veh, WIPF1 / RFU, LARP1B / Fold change vs veh, LARP1B / RFU, RASA1 / Fold change vs veh, RASA1 / RFU, RB1 / Fold change vs veh, RB1 / RFU, PPFIA1 / Fold change vs veh, PPFIA1 / RFU, MAT2A / Fold change vs veh, MAT2A / RFU, CCT5 / Fold change vs veh, CCT5 / RFU, WDR92 / Fold change vs veh, WDR92 / RFU, CUX1 / Fold change vs veh, CUX1 / RFU, TTC7A / Fold change vs veh, TTC7A / RFU, TMEM135 / Fold change vs veh, TMEM135 / RFU, DEPTOR / Fold change vs veh, DEPTOR / RFU, CPM / Fold change vs veh, CPM / RFU, DNAJB6 / Fold change vs veh, DNAJB6 / RFU, CACNA2D3 / Fold change vs veh, CACNA2D3 / RFU, DTX4 / Fold change vs veh, DTX4 / RFU, TFCP2 / Fold change vs veh, TFCP2 / RFU, GMCL1 /// GMCL1P1 / Fold change vs veh, GMCL1 /// GMCL1P1 / RFU, AEBP2 / Fold change vs veh, AEBP2 / RFU, SNHG1 /// SNORD22 /// SNORD25 /// SNORD26 /// SNORD27 /// SNORD28 /// SNORD29 /// SNORD31 / Fold change vs veh, SNHG1 /// SNORD22 /// SNORD25 /// SNORD26 /// SNORD27 /// SNORD28 /// SNORD29 /// SNORD31 / Fold change (Aza/veh), C12orf56 (ProbeSet 11735607_a_at) / Fold change (ACY-1035/veh), C12orf56 (ProbeSet 11735607_a_at) / Fold change (Aza/veh), FGFR1OP (ProbeSet 11751329_s_at) / Fold change (ACY-1035/veh), FGFR1OP (ProbeSet 11751329_s_at) / Fold change (Aza/veh), VPS36 (ProbeSet 11739960_a_at) / Fold change (ACY-1035/veh), VPS36 (ProbeSet 11739960_a_at) / RFU SYPL1 (11715823_x_at) / Fold change /veh SYPL1 (11715823_x_at) / RFU IGFBP7 (11715501_s_at) / Fold change /veh IGFBP7 (11715501_s_at) / RFU REEP3 (11722064_at) / Fold change /veh REEP3 (11722064_at) / RFU IGLL1 (11728026_x_at) / Fold change /veh IGLL1 (11728026_x_at): dose or concentration left out as unconfirmed
Settings: MV-4-11 cells, 48 hours

Nc1ncn([C@@H]2O[C@H](CO)[C@@H](O)[C@H]2O)c(=O)n1 [azacitidine]
Fold change /veh IL23R (11737362_x_at): 1.70
